Earlier results in patent US7833962B2, “Method of reducing hypertension by administering flavanol gylcosides” (Conopco, Inc., priority 2003, dated 2010).
“Also recorded” adds a separate entry of the source.

What was measured:
[1] = tested on: Spontaneously Hypertensive Rats (SHR); details: chronic treatment, Duarte et al. 2001
[2] = compared with quercetin glucosides such as isoquercitrin

Row | Compound | blood pressure [1] | glutathione peroxidase activity [1] | plasma and hepatic malondialdehyde levels [1] | bioavailability [2]
1 | O=c1c(O)c(-c2ccc(O)c(O)c2)oc2cc(O)cc(O)c12 [quercetin aglycone, quercetin] | reduced blood pressure | increased glutathione peroxidase activity | reduced both plasma and hepatic malondialdehyde levels | –
2 | C[C@@H]1O[C@@H](OC[C@H]2O[C@@H](Oc3c(-c4ccc(O)c(O)c4)oc4cc(O)cc(O)c4c3=O)[C@H](O)[C@@H](O)[C@@H]2O)[C@H](O)[C@H](O)[C@H]1O [rutin, quercetin-3-rutinoside] | – | – | – | poor bioavailability; also recorded: much lower than the glucoside isoquercitrin
